Columns and labels:
osteoclasts = assay: F-actin content by rhodamine phalloidin binding; format: cell-based, mouse; details: sNT-LPL peptides; compared with P2, P5, and P6
Method: For the measurement of F-actin, osteoclasts transduced with TAT-LPL peptides of interest for 15 to 30 minutes were re-plated on dentine slices for 3 to 4 hours or 10-12 hours, respectively, in the presence of indicated TAT-fused peptides of interest and TNF-α. For each treatment four to six wells in 24 well, culture dishes were used. Cells were fixed and rhodamine phalloidin binding to F-actin was done as described (Chellaiah et al., 2000, J. Cell Biol., 148: 665-678; Chellaiah et al., 2000, J. Biol. Chem., 275: 11993-12002: Chellaiah et at, 2007, J. Biol. Chem., 282: 10104-10116),
Osteoclasts were transduced with LPL and control peptides. For each treatment four to six wells in 24 well culture dishes were used. Cells were fixed and rhodamine phalloidin binding to F-actin was done as described (Chellaiah et al., 1998, J. Biol. Chem., 273: 11908-11916; Chellaiah et al., 1996, Mol. Biol. Cell, 7: 743-753).

endogenous LPL = assay: Phosphorylation of endogenous (cellular) LPL in osteoclasts (LPL immunoprecipitation, p-Serine immunoblot); format: cell-based, mouse; details: sNT-LPL peptides, 3-4 hours, bone particles and TNF-α
Method: Bone particles (60-80 μm in size) were prepared as described previously (Ma et at, 2010, J. Biol. Chem., 285: 29911-29924). After flushing the marrow cells for osteoclast differentiation as described above, long bones of mice (free of cells inside and muscles outside) were washed extensively with PBS and kept in ethanol until use. Long bones were air-dried in the hood and homogenized by a mini blender. Bone particles were sieved and used for experiments. Multinucleated osteoclasts were seen from day four onward. At this time cultures were added with bone particles (100 μg/ml media) for 3-4 hours or 12-14 hours in the presence of TNF-α (20 ng/ml). Some cultures were treated with 3-5 μg/ml TNFR1 antibody. Osteoclasts were preincubated with the TNFR1 antibody for 60-90 minutes before the addition of TNF-α to enhance the blocking effect. Osteoclasts incubated with bone particles for 3-4 or 12-14 hours in the presence of TNF-α were used for lysate preparations.
The vector pTAT-HA has an N-terminal 6-histidine leader (Nagahara et al., 1998, Nature Medicine, 4:1449-1452). […] For transduction with TAT-fused peptides (100-150 nM), osteoclasts were first kept in serum-free α-MEM for two hours. Afterward, TAT proteins of interest, bone particles, and TNF-α were added to cells in serum-free α-MEM Lysates were made from these cells for immunoprecipitation and immunoblotting analyses. Osteoclasts plated on dentine slices in the presence of TAT-proteins of interest and TNF-α for 3-6 hours or 12-14 hours were used for immunostaining or actin staining analyses. Osteoclast cultures treated only with TNF-α were used as controls.
Following various treatments, osteoclasts were washed three-times with cold PBS and lysed in a radioimmune precipitation buffer (RIPA; 10 mM Tris-HCl, pH 7.2, 150 mM NaCl, 1% deoxycholate, 1% Triton X-100, 0.1% SDS, 1% aprotinin, 2 mM PMSF, […], and 1% aprotinin). Cells were rocked on ice for 15 minutes and scraped off with a cell scraper. Cell lysates were centrifuged at 15,000 rpm for 5 minutes at 4° C., and the supernatant was saved. Protein contents were measured using Bio-Rad protein assay reagent. Equal amounts of lysate proteins (100-150 μg) were used for immunoprecipitations. Immunoprecipitations and Western blotting were done as described previously (Chellaiah et al., 1998, J. Biol. Chem., 273: 11908-11916; Chellaiah et al., 1996, Mol. Biol. Cell, 7: 743-753).
After cells were kept in the serum-free α-MEM medium for two hours, LPL peptides of interest were added to a final concentration of 100-150 nM to cells in serum-free media (Chellaiah et al, 2000, J. Biol. Chem., 275: 11993-12002). Osteoclasts transduced with peptides of interest and added with bone particles in the presence of TNF-α for 3-4 hours or 12-14 hours were used for lysate preparations. Cells plated on coverslips and treated with peptides were used for actin staining to detect podosomes. After transduction for 30 min., osteoclasts were re-plated on dentine slices with respective LPL peptide and TNF-α for 3-6 hours or 12-14 hours. These cells were used for Actin staining with rhodamine-phalloidin or immunostaining analyses (Chellaiah et al., 2000, J. Biol. Chem., 275: 11993-12002; Chellaiah et al., 2000, J. Cell. Biol., 148: 665-678; Chellaiah et al., 2003, J Biol Chem 278: 29086-29097).
Following various treatments, osteoclasts were washed three times with cold PBS and lysed in a Triton-containing lysis buffer as described (Chellaiah et al., 1996, Mol. Biol. Cell, 7: 743-753). Cells were rocked on ice for 15 minutes, and scraped off with a cell scraper. Cell lysates were centrifuged at 15,000 rpm for 5 minutes, at 4° C., and the supernatant was saved. Protein contents were measured using Bio-Rad protein assay reagent. Osteoclast cultures were also subjected to a trypan blue dye (Sigma T8154) exclusion test to determine the viability of osteoclasts after various treatments. […]

| F-actin level (osteoclasts) | Sequence | inhibitory effect on the phosphorylation of cellular LPL (endogenous LPL) |
| --- | --- | --- |
| decreased | MARGAVSDEE [Peptide P3, TAT-fused sNT-LPL peptide, Ser-5 substituted with Ala (A5S7)] | varied inhibitory effects |
| decreased | MARGSVADEE [Peptide P4, TAT-fused sNT-LPL peptide, Ser-7 substituted with Ala (S5A7)] | varied inhibitory effects |
